Test results taken from ChEMBL document CHEMBL3886423, “Nitrogen-containing compounds and pharmaceutical compositions thereof for the treatment of atrial fibrillation” (2015).
pIC50: −log10 of the molar value.

Target: Potassium voltage-gated channel subfamily A member 5 (Homo sapiens, UniProt P22460)
Assay: Inhibition Assay: CHO-K1 cell lines stably expressing human Kv1.5 channels were prepared in the following manner.Full-length human Kv1.5 cDNA was cloned from a human heart cDNA library (produced by Stratagene). The obtained human Kv1.5 sequence corresponds to the sequence described in FASEB J. 5, 331-337 (1991).The obtained human Kv1.5 cDNA was inserted into a plasmid encoding a CMV promoter and a G418 resistance marker to produce a Kv1.5 expression vector. The human Kv1.5 expression vector was transfected into CHO-K1 cells by the lipofectamine method. After culturing the cells in an F-12 medium (produced by Invitrogen Corp.) containing 10% FBS (produced by Invitrogen Corp.) for 3 or 4 days, the medium was replaced with a FBS-containing F-12 medium that included 1,000 ug/ml of G418 (produced by Invitrogen Corp.), and single colonies were isolated. The amount of Kv1.5 channel expression in the single colonies was quantified at the mRNA level by RT-PCR and then quantified at the protein level.
Format: cell-based

Potassium voltage-gated channel subfamily A member 5, sequence (P22460 whole entry): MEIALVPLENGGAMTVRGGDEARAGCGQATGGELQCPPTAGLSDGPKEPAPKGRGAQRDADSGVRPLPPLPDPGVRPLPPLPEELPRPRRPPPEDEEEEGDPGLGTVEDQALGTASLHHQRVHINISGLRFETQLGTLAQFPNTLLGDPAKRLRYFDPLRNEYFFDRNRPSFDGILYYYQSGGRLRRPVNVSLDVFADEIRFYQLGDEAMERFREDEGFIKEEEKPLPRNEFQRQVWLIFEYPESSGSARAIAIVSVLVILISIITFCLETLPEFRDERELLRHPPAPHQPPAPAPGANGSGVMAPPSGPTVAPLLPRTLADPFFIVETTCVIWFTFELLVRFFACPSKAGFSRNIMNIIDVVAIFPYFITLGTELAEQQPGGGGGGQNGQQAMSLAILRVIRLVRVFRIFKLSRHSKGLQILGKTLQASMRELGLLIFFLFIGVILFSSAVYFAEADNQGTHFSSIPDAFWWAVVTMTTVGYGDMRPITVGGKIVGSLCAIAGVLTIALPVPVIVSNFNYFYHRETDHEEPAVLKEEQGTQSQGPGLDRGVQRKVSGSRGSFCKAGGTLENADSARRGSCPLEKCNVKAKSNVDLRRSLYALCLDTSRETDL

Q: How did the pIC50 turn out when `Cn1c(=O)ccc2cc(OCCCCCN(CCc3cccnc3)C(=O)c3cccnc3)ccc21` was run?
A: 5.85
